Data from BindingDB's records for doi:10.1016/j.ejphar.2004.01.015 (Abbott Laboratories, 2004).
“And” between values parts separate entries of the source, which are not always exact repeats. Equal values may be shown once.

Key:
[1] = molecular target: Histamine H1 receptor (Homo sapiens, UniProt P35367)
[2] = molecular target: Histamine H2 receptor (Homo sapiens, UniProt P25021)
[3] = molecular target: Hrh3 protein (Rattus norvegicus, UniProt Q5PPG3)
[4] = molecular target: Histamine H3 receptor (Homo sapiens, UniProt Q9Y5N1)
Sequence of Histamine H3 receptor (Q9Y5N1 whole entry): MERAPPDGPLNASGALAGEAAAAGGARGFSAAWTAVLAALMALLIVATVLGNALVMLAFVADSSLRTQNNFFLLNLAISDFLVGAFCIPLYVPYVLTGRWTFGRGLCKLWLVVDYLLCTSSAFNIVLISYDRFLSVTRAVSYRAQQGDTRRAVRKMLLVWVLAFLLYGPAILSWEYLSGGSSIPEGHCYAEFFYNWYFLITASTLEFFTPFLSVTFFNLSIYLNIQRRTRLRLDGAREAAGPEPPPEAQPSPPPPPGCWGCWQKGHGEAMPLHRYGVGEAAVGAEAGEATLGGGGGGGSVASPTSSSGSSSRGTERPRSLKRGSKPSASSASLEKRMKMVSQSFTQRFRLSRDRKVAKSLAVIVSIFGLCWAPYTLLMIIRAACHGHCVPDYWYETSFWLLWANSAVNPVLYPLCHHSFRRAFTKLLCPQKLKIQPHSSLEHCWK

[5] = molecular target: Histamine H4 receptor (Homo sapiens, UniProt Q9H3N8)

Sequence of Hrh3 protein (Q5PPG3 whole entry): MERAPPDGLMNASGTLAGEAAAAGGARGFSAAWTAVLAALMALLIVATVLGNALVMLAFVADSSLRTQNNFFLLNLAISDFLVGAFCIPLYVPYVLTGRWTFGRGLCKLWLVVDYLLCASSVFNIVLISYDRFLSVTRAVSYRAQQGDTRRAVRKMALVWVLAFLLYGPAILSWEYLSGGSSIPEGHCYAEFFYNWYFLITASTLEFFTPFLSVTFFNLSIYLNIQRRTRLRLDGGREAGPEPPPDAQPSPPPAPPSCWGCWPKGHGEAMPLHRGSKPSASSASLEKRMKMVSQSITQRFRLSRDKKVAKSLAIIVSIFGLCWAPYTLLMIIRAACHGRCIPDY
Sequence of Histamine H2 receptor (P25021 whole entry): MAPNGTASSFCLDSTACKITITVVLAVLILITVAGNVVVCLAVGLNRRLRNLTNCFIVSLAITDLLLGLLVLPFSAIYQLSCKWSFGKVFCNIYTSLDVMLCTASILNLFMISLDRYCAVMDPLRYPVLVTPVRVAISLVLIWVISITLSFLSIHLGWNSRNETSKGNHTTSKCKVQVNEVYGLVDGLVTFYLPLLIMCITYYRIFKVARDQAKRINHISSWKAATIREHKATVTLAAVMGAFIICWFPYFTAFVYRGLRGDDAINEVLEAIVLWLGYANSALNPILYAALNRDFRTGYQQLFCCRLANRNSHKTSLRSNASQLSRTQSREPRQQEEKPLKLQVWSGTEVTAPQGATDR
Sequence of Histamine H1 receptor (P35367 whole entry): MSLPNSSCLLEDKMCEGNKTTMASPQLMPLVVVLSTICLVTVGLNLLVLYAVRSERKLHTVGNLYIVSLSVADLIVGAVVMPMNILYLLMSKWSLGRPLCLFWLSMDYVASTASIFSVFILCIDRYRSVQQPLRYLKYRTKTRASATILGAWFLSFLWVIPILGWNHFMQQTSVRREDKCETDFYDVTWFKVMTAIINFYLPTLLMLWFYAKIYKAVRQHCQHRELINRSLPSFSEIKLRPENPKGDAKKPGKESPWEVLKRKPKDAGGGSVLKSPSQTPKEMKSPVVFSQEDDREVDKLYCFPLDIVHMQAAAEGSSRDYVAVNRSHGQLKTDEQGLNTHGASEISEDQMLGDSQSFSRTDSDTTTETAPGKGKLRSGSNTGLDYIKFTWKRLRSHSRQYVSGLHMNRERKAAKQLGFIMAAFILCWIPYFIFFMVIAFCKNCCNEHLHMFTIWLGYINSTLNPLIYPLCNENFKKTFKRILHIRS

Row | SMILES | Ki [1] [nM] | Ki [2] [nM] | Ki [3] | Ki [4] | Ki [5] [nM]
1 | S=C(NC1CCCCC1)N1CCC(c2cnc[nH]2)CC1 | > 10000 | > 10000 | 7.5 nM and 3.21 nM |  | 
2 | NCCc1c[nH]cn1 [[3H]histamine] |  |  | 4.9 nM and 2.66 nM |  | 

Other lines, results leading:

Row | Ki [1] [nM] | Ki [2] [nM] | Ki [3] | Ki [4] | Ki [5] [nM] | SMILES
3 | > 10000 | > 10000 | 0.654 nM and 0.427 nM |  |  | O=C(c1ccc(OCCCc2cnc[nH]2)cc1)C1CC1
4 |  | > 10000 | 21.7 nM and 6.28 nM | 22.7 nM and 3.24 nM | > 10000 | CN(C)[C@@H]1CCN(CCCOc2ccc(-c3ccc(C#N)cc3)cc2)C1 [A-331440]
5 | 2560 | 7200 | 25.8 nM | 499 nM and 136 nM | 734 | O=C(CCCCC1CCCCC1)N1CCC(c2c[nH]cn2)CC1
